Read-outs that look alike come from different tables or passages of the source. Where no end group is shown, it is not given here.
Tests used:
[1] = assay type: physicochemical; settings: for log β H2L / log β H3L / log β H4L / log β H5L / log β H6L / log β HL: potentiometry pH 2-11, 298 K, 4 mM HClO4, I = 40 mM SDS, ligand 0.5 mM, SD in parentheses
Experimental: (§1) All peptides ([…]-COOH, […]-COOH, […]
(§2) were purchased from KareBay Biochem (USA) (certified purity: 98 %) and were used as received.
(§3) The carbonate-free stock solutions of 0.1 M NaOH were purchased from Sigma-Aldrich and then potentiometrically standardized with the primary standard potassium hydrogen phthalate (99.9 % purity). […]
(§4) Stability constants for proton, Zn(II) and Cu(II) complexes were calculated from pH -metric titration curves carried out over the pH range 2-11 at T = 298 K in water solution of 4 mM HClO 4 and ionic strength 40 mM (SDS), using a total volume of 3 ml. The potentiometric titrations were performed using a Metrohm Titrando 905 titrator and a Mettler Toledo InLab Micro comb ined pH electrode. The thermostabilized glass -cell was equipped with a magnetic stirring system, a microburette delivery tube and an inlet –outlet tube for argon.
(§5) Solutions were titrated with 0.1 M carbonate-free NaOH. The electrodes were calibrated daily f or hydrogen ion concentration by titrating HClO 4 with NaOH under the same experimental conditions as above. The purities and the exact concentrations of the ligand solutions were determined by the Gran method. 1 The ligand concentration was 0.5 mM. The Zn(II) and Cu(II) to ligand ratio was 1 : 1.
(§6) The standard potential and the slope of the electrode couple were computed by means of Glee 2 program. The HYPERQUAD 20063 program was used for the stability constant calculations. The standard deviations were computed by HYPERQUAD 2006 and refer to random errors only. The constants for the hydrolytic Zn(II ) species

[2] = assay type: binding; settings: for log β ZnH2L / log β ZnH3L / log β ZnHL / log β ZnL / log β ZnH4L: Zn(II):L 1:1, 0.5 mM
Experimental: as §1, §2, §3, §4, §5, §6

[3] = test system: Candida albicans ATCC 10231; settings: ATCC 10231, 24 h
[4] = test system: Enterococcus faecalis ATCC 29212; settings: ATCC 29212, 24 h
E. coli = settings: literature describes C-amidated clavanins, cited from earlier work
Text: During the over 20-year study on clavanins (mainly clavanin A), various modes of action were proposed.[15],[18],[19] […] The second is observed at acidic pH (5.5) when clavanin A binds to DNA and disrupts DNA synthesis, similarly to indolicidin.[20] The third mechanism, which also occurs at pH 5.5, is assigned not to the “single” clavanin A but to its Zn(II) complex, which cleav ...

[5] = test system: Staphylococcus spp. (for S. aureus); parameters: method as in earlier work; settings: EUCAST/2021/01/01, ref 22 (SI), cited from earlier work; for MIC breakpoints R>: resistant breakpoint; for MIC breakpoints S≤: susceptible breakpoint
[6] = test system: Enterococcus spp. (for E. faecalis); parameters: method as in earlier work; settings: EUCAST/2021/01/01, ref 22 (SI), cited from earlier work; for MIC breakpoints R>: resistant breakpoint; for MIC breakpoints S≤: susceptible breakpoint
[7] = test system: Enterobacterales (for E. coli); parameters: method as in earlier work; settings: EUCAST/2021/01/01, ref 22 (SI), cited from earlier work; for MIC breakpoints R>: resistant breakpoint; for MIC breakpoints S≤: susceptible breakpoint
[8] = potentiometry, 298 K, I = 40 mM SDS, Cu(II):L 1:1, 0.5 mM, SD in parentheses
[9] = potentiometry, 298 K, I = 40 mM SDS, SD in parentheses

H-LFKLLGKIIHHVGNFVHGFSHVF-OH [Clavanin E]
pKa, species H2L [1]: 9.19 | pKa, species H3L [1]: 8.29 | pKa, species H4L [1]: 7.82 | pKa, species H5L [1]: 7.30 | pKa, species H6L [1]: 5.55 | pKa, species HL [1]: 10.77 | log β H2L [1]: 19.96 (3) | log β H3L [1]: 28.25 (3) | log β H4L [1]: 36.07 (3) | log β H5L [1]: 43.37 (3) | log β H6L [1]: 48.92 (4) | log β HL [1]: 10.77 (2) | pKa, line CuH2L [2]: 6.90 | pKa, line CuH3L [2]: 5.96 | pKa, line CuH4L [2]: 5.16 | pKa, line CuH-1L [2]: 8.78 | pKa, line CuH-2L [2]: 10.05 | pKa, line CuH-3L [2]: 10.37 | pKa, line CuHL [2]: 7.72 | pKa, line CuL [2]: 8.81 | pKa, line ZnH2L [2]: 7.18 | pKa, line ZnHL [2]: 8.62 | pKa, line ZnL [2]: 9.77 | log β CuH2L [2, 8]: 29.52 (3) | log β CuH3L [2, 8]: 36.42 (3) | log β CuH4L [2, 8]: 42.38 (2) | log β CuH5L [2, 8]: 47.54 (3) | log β CuH-1L [2, 8]: 4.21 (4) | log β CuH-2L [2, 8]: -5.84 (4) | log β CuH-3L [2, 8]: -16.21 (5) | log β CuHL [2, 8]: 21.80 (3) | log β CuL [2, 8]: 12.99 (4) | log β ZnH2L [2, 9]: 25.12 (5) | log β ZnH3L [2, 9]: 32.30 (11) | log β ZnHL [2, 9]: 16.50 (6) | log β ZnL [2, 9]: 6.73 | MIC [3]: 32 µg/mL

H-VFQFLGKIIHHVGNFVHGFSHVF-OH [Clavanin A]
pKa, species H2L [1]: 8.88 | pKa, species H3L [1]: 8.09 | pKa, species H4L [1]: 7.63 | pKa, species H5L [1]: 6.92 | pKa, species H6L [1]: 5.32 | pKa, species HL [1]: 10.18 | log β H2L [1]: 19.06 (6) | log β H3L [1]: 27.15 (8) | log β H4L [1]: 34.78 (7) | log β H5L [1]: 41.7 (8) | log β H6L [1]: 47.02 (10) | log β HL [1]: 10.18 (6) | MIC [4]: 256 µg/mL | pKa, line CuH2L [2]: 6.82 | pKa, line CuH3L [2]: 6.01 | pKa, line CuH-1L [2]: 8.82 | pKa, line CuH-2L [2]: 9.76 | pKa, line CuH-3L [2]: 10.16 | pKa, line CuHL [2]: 7.56 | pKa, line CuL [2]: 8.36 | pKa, line ZnH2L [2]: 7.15 | pKa, line ZnH3L [2]: 6.59 | pKa, line ZnHL [2]: 8.53 | pKa, line ZnL [2]: 9.36 | log β CuH2L [2, 8]: 27.53 (3) | log β CuH3L [2, 8]: 34.35 (2) | log β CuH4L [2, 8]: 40.36 (2) | log β CuH-1L [2, 8]: 2.79 (3) | log β CuH-2L [2, 8]: -6.97 (3) | log β CuH-3L [2, 8]: -17.13 (3) | log β CuHL [2, 8]: 19.97 (3) | log β CuL [2, 8]: 11.61 (3) | log β ZnH2L [2, 9]: 23.99 (2) | log β ZnH3L [2, 9]: 31.14 (3) | log β ZnH4L [2, 9]: 37.74 (12) | log β ZnHL [2, 9]: 15.46 (2) | log β ZnL [2, 9]: 6.10 (7) | MIC [3]: 128 µg/mL | minimum inhibitory concentration (MIC) (E. coli; pH 5.5, with addition of Zn(II) ions): 4 µM | minimum inhibitory concentration (MIC) (E. coli; pH 5.5, without Zn(II)): 64 µM

O=C(N[C@H](CO)[C@H](O)c1ccc([N+](=O)[O-])cc1)C(Cl)Cl [Chloramphenicol]
MIC breakpoints R> [5]: > 8 µg/mL | MIC breakpoints S≤ [5]: ≤ 8 µg/mL

VFQFLGRIIHHVGNFVHGFSHVF [Clavanin B]
pKa, species H2L [1]: 9.04 | pKa, species H3L [1]: 8.26 | pKa, species H4L [1]: 7.79 | pKa, species H5L [1]: 7.09 | pKa, species H6L [1]: 5.12 | pKa, species HL [1]: 11.17 | pKa, line CuH2L [2]: 6.86 | pKa, line CuH3L [2]: 5.99 | pKa, line CuH-1L [2]: 9.40 | pKa, line CuH-2L [2]: 10.14 | pKa, line CuH-3L [2]: 11.28 | pKa, line CuHL [2]: 7.71 | pKa, line CuL [2]: 8.64 | pKa, line ZnH2L [2]: 7.37 | pKa, line ZnH3L [2]: 6.62 | pKa, line ZnHL [2]: 8.39 | pKa, line ZnL [2]: 10.32

O=C1CN(/N=C/c2ccc([N+](=O)[O-])o2)C(=O)N1 [Nitrofurantoin]
MIC breakpoints R> [6]: > 64 µg/mL | MIC breakpoints S≤ [6]: ≤ 64 µg/mL | MIC breakpoints R> [7]: > 64 µg/mL | MIC breakpoints S≤ [7]: ≤ 64 µg/mL | MIC breakpoints R> [5]: > 64 µg/mL | MIC breakpoints S≤ [5]: ≤ 64 µg/mL

CC1(C)S[C@@H]2[C@H](NC(=O)[C@H](C(=O)O)c3ccsc3)C(=O)N2[C@H]1C(=O)O [Ticarcillin]
MIC breakpoints R> [7]: > 16 µg/mL | MIC breakpoints S≤ [7]: ≤ 8 µg/mL

CC1=C(C(=O)O)N2C(=O)[C@@H](NC(=O)[C@H](N)c3ccc(O)cc3)[C@H]2SC1 [Cefadroxil]
MIC breakpoints R> [7]: > 16 µg/mL | MIC breakpoints S≤ [7]: ≤ 16 µg/mL

CCN1CCN(C(=O)N[C@@H](C(=O)N[C@@H]2C(=O)N3[C@@H]2SC(C)(C)[C@@H]3C(=O)O)c2ccccc2)C(=O)C1=O [Piperacillin]
MIC breakpoints R> [7]: > 8 µg/mL | MIC breakpoints S≤ [7]: ≤ 8 µg/mL

C[C@@H]1O[C@@H]1P(=O)(O)O [Fosfomycin iv, Fosfomycin]
MIC breakpoints R> [7]: > 32 µg/mL | MIC breakpoints S≤ [7]: ≤ 32 µg/mL | MIC breakpoints R> [5]: > 32 µg/mL | MIC breakpoints S≤ [5]: ≤ 32 µg/mL

CC1(C)S[C@@H]2[C@H](NC(=O)[C@H](N)c3ccc(O)cc3)C(=O)N2[C@H]1C(=O)O [Amoxicillin]
MIC breakpoints R> [6]: > 8 µg/mL | MIC breakpoints S≤ [6]: ≤ 4 µg/mL

O=[N+]([O-])c1ccc(O)c2ncccc12 [Nitroxoline]
MIC breakpoints R> [7]: > 16 µg/mL | MIC breakpoints S≤ [7]: ≤ 16 µg/mL

CC1=C(C(=O)O)N2C(=O)[C@@H](NC(=O)[C@H](N)c3ccccc3)[C@H]2SC1 [Cefalexin]
MIC breakpoints R> [7]: > 16 µg/mL | MIC breakpoints S≤ [7]: ≤ 16 µg/mL

H-VFQFLGRIIHHVGNFVHGFSHVF-OH [Clavanin B]
log β H2L [1]: 20.21 (2) | log β H3L [1]: 28.47 (2) | log β H4L [1]: 36.26 (2) | log β H5L [1]: 43.35 (2) | log β H6L [1]: 48.47 (2) | log β HL [1]: 11.17 (1) | log β CuH2L [2, 8]: 28.72 (3) | log β CuH3L [2, 8]: 35.57 (2) | log β CuH4L [2, 8]: 41.57 (3) | log β CuH-1L [2, 8]: 2.96 (3) | log β CuH-2L [2, 8]: -7.17 (3) | log β CuH-3L [2, 8]: -18.46 (4) | log β CuHL [2, 8]: 21.00 (3) | log β CuL [2, 8]: 12.37 (3) | log β ZnH2L [2, 9]: 25.24 (2) | log β ZnH3L [2, 9]: 32.61 (2) | log β ZnH4L [2, 9]: 39.23 (7) | log β ZnHL [2, 9]: 16.85 (1) | log β ZnL [2, 9]: 6.53 (7)

CC1(C)S[C@@H]2[C@H](NC(=O)[C@H](N)c3ccccc3)C(=O)N2[C@H]1C(=O)O [Ampicillin]
MIC breakpoints R> [6]: > 8 µg/mL | MIC breakpoints S≤ [6]: ≤ 4 µg/mL

NCC[C@H](O)C(=O)N[C@@H]1C[C@H](N)[C@@H](O[C@H]2O[C@H](CN)[C@@H](O)[C@H](O)[C@H]2O)[C@H](O)[C@H]1O[C@H]1O[C@H](CO)[C@@H](O)[C@H](N)[C@H]1O [Amikacin]
MIC breakpoints R> [5]: > 8 µg/mL | MIC breakpoints S≤ [5]: ≤ 8 µg/mL
